Assay results: publication PMC3214022, “Plasmodium falciparum Parasites Are Killed by a Transition State Analogue of Purine Nucleoside Phosphorylase in a Primate Animal Model” (PLoS ONE, 2011)

Experiment: Weights, CBC, blood chemistry and signs of toxicity, Table S1 sheet PD-2 (infected Aotus, twice a day for seven days)
Type: in vivo, Aotus lemurinus lemurinus
Conditions: oral 10 mg/kg twice a day/7 days, 25044 Male (ITM2)
Procedure: Laboratory bred Aotus lemurinus lemurinus monkeys (0.75–0.89 kg) were maintained as described. […] Blood samples were collected before the treatment started (t = 0), 0.05 h, 0.5 h, 1 h, 2 h, 6 h, 24 h, 48 h, and 6, 12 and 18 days after the first dose from each monkey and processed as described below. Pharmacokinetic parameters were calculated using PKSolver. For efficacy studies, Aotus monkeys were inoculated intravenously with 5×10^6 parasites of the FVO strain of P. falciparum in an approved treatment protocol. […] Parasitaemia was determined by Giemsa-stained thick blood smears prepared daily from the marginal ear vein [41]. Blood samples were collected from each monkey and transferred to tubes containing lithium heparin, centrifuged and both plasma and blood cells were frozen at −80 °C until analysis. Animals received a physical examination and blood chemistry profiles were monitored after treatment as described previously. Any monkey not responding appropriately to treatment was cured of its infection with mefloquine (40 mg kg^−1). […] The day of clearance is defined as the first of three consecutive days in which the thick blood films are parasite negative. The day of recrudescence is the first of three consecutive days of positive thick blood films after a period of clearance. Suppression is defined as a transient decrease in the parasite count post-treatment without clearance.

## Nc1nc2c(CN3CC(O)C(CO)C3)c[nH]c2c(=O)[nH]1 (stereo not shown) [BCX4945, 4′-deaza-1′-aza-2′-deoxy-1′-(9-methylene)-Immucillin-G]
Day 8
  Blood Urea Nitrogen: 14.7 mg/dL
  Creatine: 0.5 mg/dL
  Erythrocytes: 4.72e+06 µL⁻¹
  Glutamate Pyruvate Transaminase: 18.8 U/L
  Granulocytes (%): 14.6%
  Granulocytes (x 103/ul): 2.8 x 103/ul
  Hematocrit: 36.6%
  Hemoglobin: 12.9 g/dL
  Leucocytes: 18900 µL⁻¹
  Lymphocytes (%): 74.4%
  Lymphocytes (x 103/ul): 14.1 x 103/ul
  Mean Corpuscular Volume: 77.6 fL
  Mean Hemoglobin Content: 35.3 g/dL
  Mean Platelet Volume: 11.8 fL
  Monocytes (%): 11%
  Monocytes (x 103/ul): 2.1 x 103/ul
  Platelets: 276000 µL⁻¹
  Red Cell Distribution Width: 16.9%
  Reticulocytes: 1.8%
  WEIGHT: 820 g
Day 12
  Blood Urea Nitrogen: 12.6 mg/dL
  Creatine: 0.5 mg/dL
  Erythrocytes: 4.24e+06 µL⁻¹
  Glutamate Pyruvate Transaminase: 48.0 U/L
  Granulocytes (%): 20%
  Granulocytes (x 103/ul): 2.6 x 103/ul
  Hematocrit: 33.5%
  Hemoglobin: 11.4 g/dL
  Leucocytes: 13200 µL⁻¹
  Lymphocytes (%): 68.9%
  Lymphocytes (x 103/ul): 9.1 x 103/ul
  Mean Corpuscular Hemoglobin: 27 pg
  Mean Corpuscular Volume: 78.9 fL
  Mean Hemoglobin Content: 34.2 g/dL
  Mean Platelet Volume: 9.6 fL
  Monocytes (%): 11.1%
  Monocytes (x 103/ul): 1.5 x 103/ul
  Platelets: 264000 µL⁻¹
  Red Cell Distribution Width: 20.2%
  Reticulocytes: 3.8%
  WEIGHT: 840 g
Day 15
  Blood Urea Nitrogen: 13.8 mg/dL
  Creatine: 0.5 mg/dL
  Erythrocytes: 4.68e+06 µL⁻¹
  Glutamate Pyruvate Transaminase: 29.1 U/L
  Granulocytes (%): 11.9%
  Granulocytes (x 103/ul): 3.4 x 103/ul
  Hematocrit: 38.8%
  Hemoglobin: 13.6 g/dL
  Leucocytes: 28300 µL⁻¹
  Lymphocytes (%): 78.1%
  Lymphocytes (x 103/ul): 22.1 x 103/ul
  Mean Corpuscular Hemoglobin: 29 pg
  Mean Corpuscular Volume: 83 fL
  Mean Hemoglobin Content: 34.9 g/dL
  Mean Platelet Volume: 12.8 fL
  Monocytes (%): 10%
  Monocytes (x 103/ul): 2.8 x 103/ul
  Platelets: 258000 µL⁻¹
  Red Cell Distribution Width: 23.1%
  Reticulocytes: 2.6%
  WEIGHT: 830 g
Day 18
  Blood Urea Nitrogen: 15.2 mg/dL
  Creatine: 0.5 mg/dL
  Erythrocytes: 4.88e+06 µL⁻¹
  Glutamate Pyruvate Transaminase: 22.3 U/L
  Granulocytes (%): 15.5%
  Granulocytes (x 103/ul): 2.7 x 103/ul
  Hematocrit: 40.6%
  Hemoglobin: 13.7 g/dL
  Leucocytes: 17100 µL⁻¹
  Lymphocytes (%): 78%
  Lymphocytes (x 103/ul): 13.3 x 103/ul
  Mean Corpuscular Hemoglobin: 28.1 pg
  Mean Corpuscular Volume: 83.2 fL
  Mean Hemoglobin Content: 33.8 g/dL
  Mean Platelet Volume: 12.1 fL
  Monocytes (%): 6.5%
  Monocytes (x 103/ul): 1.1 x 103/ul
  Platelets: 247000 µL⁻¹
  Red Cell Distribution Width: 22.6%
  Reticulocytes: 2.2%
  WEIGHT: 820 g
Day 25
  Erythrocytes: 4.04e+06 µL⁻¹
  Granulocytes (%): 11.4%
  Granulocytes (x 103/ul): 2.3 x 103/ul
  Hematocrit: 34.8%
  Leucocytes: 19900 µL⁻¹
  Lymphocytes (%): 79.1%
  Lymphocytes (x 103/ul): 15.7 x 103/ul
  Mean Corpuscular Hemoglobin: 27.6 pg
